Reference: PubChem BioAssay (NCI)
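GI50 = concentration required for 50% inhibition of growth. TGI marks complete inhibition of growth.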

Experiments:
Assay in all cases: NCI tumour cell line growth inhibition, 384-well format
[1] = tested on: COLO 205 colon
[2] = tested on: TK-10 renal
[3] = tested on: MOLT-4 leukemia
[4] = tested on: LOX IMVI melanoma
[5] = tested on: MCF7 breast
[6] = tested on: 786-0 renal
[7] = tested on: OVCAR-4 ovarian
[8] = tested on: A549 NSCLC
[9] = tested on: HCT-116 colon
[10] = tested on: SK-MEL-2 melanoma
[11] = tested on: NCI-H226 lung
[12] = tested on: OVCAR-8 ovarian
[13] = tested on: PC-3 prostate
[14] = tested on: NCI-H460 NSCLC
[15] = tested on: NCI-H522 lung
[16] = tested on: NCI-H23 lung
[17] = tested on: CCRF-CEM leukemia
[18] = tested on: HL-60(TB) leukemia
[19] = tested on: SW-620 colon
[20] = tested on: RXF 393 renal
[21] = tested on: UACC-62 melanoma
[22] = tested on: HOP-62 NSCLC
[23] = tested on: M14 melanoma
[24] = tested on: NCI/ADR-RES ovarian
[25] = tested on: A498 renal
[26] = tested on: SK-OV-3 ovarian
[27] = tested on: IGROV1 ovarian
[28] = tested on: T-47D breast
[29] = tested on: HS 578T breast
[30] = tested on: HCC-2998 colon
[31] = tested on: DU-145 prostate
[32] = tested on: KM12 colon
[33] = tested on: MDA-MB-231 breast
[34] = tested on: SN12C renal
[35] = tested on: HT29 colon
[36] = tested on: MDA-MB-435 melanoma
[37] = tested on: UACC-257 melanoma
[38] = tested on: SNB-75 CNS
[39] = tested on: SK-MEL-5 melanoma
[40] = tested on: HCT-15 colon
[41] = tested on: MALME-3M melanoma
[42] = tested on: CAKI-1 renal
[43] = tested on: SR leukemia
[44] = tested on: SF-268 CNS
[45] = tested on: MDA-MB-468 breast
[46] = tested on: NCI-H322M lung
[47] = tested on: OVCAR-5 ovarian
[48] = tested on: SF-295 CNS
[49] = tested on: SNB-19 CNS
[50] = tested on: OVCAR-3 ovarian
[51] = tested on: U251 glioblastoma
[52] = tested on: K-562 leukemia
[53] = tested on: RPMI-8226 leukemia
[54] = tested on: ACHN renal
[55] = tested on: SK-MEL-28 melanoma
[56] = tested on: BT-549 breast
[57] = tested on: SF-539 CNS
[58] = tested on: EKVX NSCLC
[59] = tested on: UO-31 renal

Cc1[nH]ncc1-c1cc2nc(C3CC4CCN3CC4)[nH]c(=O)c2s1 (stereo not given)
GI50 [1]: 0.0396 µM | TGI [1]: 0.198 µM | GI50 [2]: 9.31 µM | TGI [2]: > 79.3 µM | GI50 [3]: 1.14 µM | TGI [3]: 11.3 µM | GI50 [4]: 0.888 µM | TGI [4]: 14.6 µM | GI50 [5]: 3.55 µM | TGI [5]: > 100 µM | GI50 [6]: 2.75 µM | TGI [6]: 55.1 µM | GI50 [7]: 21.4 µM | TGI [7]: 74.9 µM | GI50 [8]: 2.86 µM | TGI [8]: > 100 µM | GI50 [9]: 2.16 µM | TGI [9]: > 100 µM | GI50 [10]: 6.55 µM | TGI [10]: 18.4 µM | GI50 [11]: 2.53 µM | TGI [11]: 15.9 µM | GI50 [12]: 8.87 µM | TGI [12]: > 100 µM | GI50 [13]: 8.96 µM | TGI [13]: > 100 µM | GI50 [14]: 1.19 µM | TGI [14]: 5.55 µM | GI50 [15]: 0.381 µM | TGI [15]: 7.5 µM | GI50 [16]: 1.36 µM | TGI [16]: 6.79 µM | GI50 [17]: 0.138 µM | TGI [17]: 0.905 µM | GI50 [18]: 0.562 µM | TGI [18]: 1.8 µM | GI50 [19]: 0.333 µM | GI50 [20]: 2.27 µM | TGI [20]: 7.19 µM | GI50 [21]: 2.88 µM | TGI [21]: 15.5 µM | GI50 [22]: 2.31 µM | TGI [22]: 16.1 µM | GI50 [23]: 5.7 µM | TGI [23]: 19.4 µM | GI50 [24]: 16.2 µM | TGI [24]: 65.8 µM | GI50 [25]: 0.0828 µM | TGI [25]: 70.7 µM | GI50 [26]: 17.8 µM | TGI [26]: > 100 µM | GI50 [27]: 3.76 µM | TGI [27]: > 51.1 µM | GI50 [28]: 24.9 µM | TGI [28]: > 100 µM | GI50 [29]: 1.48 µM | TGI [29]: 3.32 µM | GI50 [30]: 3.48 µM | TGI [30]: 24.2 µM | GI50 [31]: 0.876 µM | TGI [31]: > 100 µM | GI50 [32]: 3.22 µM | TGI [32]: 25.7 µM | GI50 [33]: 7.14 µM | TGI [33]: > 100 µM | GI50 [34]: 1.78 µM | TGI [34]: 17.9 µM | GI50 [35]: 14.4 µM | TGI [35]: > 100 µM | GI50 [36]: 9.26 µM | TGI [36]: 28 µM | GI50 [37]: 15.2 µM | TGI [37]: 43.8 µM | GI50 [38]: 2.06 µM | TGI [38]: 7.46 µM | GI50 [39]: 2.18 µM | TGI [39]: 7.13 µM | GI50 [40]: 2.74 µM | TGI [40]: > 100 µM | GI50 [41]: 11.1 µM | TGI [41]: 29.7 µM | GI50 [42]: 1.56 µM | TGI [42]: > 100 µM | GI50 [43]: 0.178 µM | TGI [43]: 0.366 µM | GI50 [44]: 1.42 µM | TGI [44]: 4.23 µM | GI50 [45]: 1.17 µM | TGI [45]: 20.9 µM | GI50 [46]: 6.94 µM | TGI [46]: 34.3 µM | GI50 [47]: 4.24 µM | TGI [47]: > 100 µM | GI50 [48]: 1.19 µM | TGI [48]: 49.4 µM | GI50 [49]: 9.66 µM | TGI [49]: > 100 µM | GI50 [50]: 2.93 µM | TGI [50]: 18.3 µM | GI50 [51]: 1.38 µM | TGI [51]: 74.2 µM | GI50 [52]: 5.24 µM | TGI [52]: > 100 µM | GI50 [53]: 10.3 µM | TGI [53]: 22 µM | GI50 [54]: 1.96 µM | TGI [54]: > 100 µM | GI50 [55]: 6.67 µM | TGI [55]: 23.2 µM | GI50 [56]: 1.85 µM | TGI [56]: 6.54 µM | GI50 [57]: 1.31 µM | TGI [57]: 7.72 µM | GI50 [58]: 5.93 µM | TGI [58]: 42.9 µM

Cc1nc2ccc(CN(C)c3ccc(C(=O)N[C@@H](CCC(=O)O)C(=O)O)s3)cc2c(=O)[nH]1
GI50 [1]: < 0.01 µM | TGI [1]: > 100 µM | GI50 [2]: < 0.01 µM | TGI [2]: > 100 µM | GI50 [3]: < 0.01 µM | TGI [3]: < 0.01 µM | GI50 [4]: < 0.01 µM | TGI [4]: > 100 µM | GI50 [5]: < 0.01 µM | TGI [5]: > 100 µM | GI50 [6]: < 0.01 µM | TGI [6]: > 100 µM | GI50 [7]: > 100 µM | TGI [7]: > 100 µM | GI50 [8]: < 0.01 µM | TGI [8]: > 100 µM | GI50 [11]: 55.5 µM | TGI [11]: > 100 µM | GI50 [12]: < 0.01 µM | TGI [12]: > 100 µM | GI50 [13]: < 0.01 µM | TGI [13]: > 100 µM | GI50 [14]: < 0.01 µM | TGI [14]: > 100 µM | GI50 [15]: < 0.01 µM | TGI [15]: < 0.01 µM | GI50 [16]: 0.49 µM | TGI [16]: > 100 µM | GI50 [17]: < 0.01 µM | TGI [17]: < 0.01 µM | GI50 [18]: < 0.01 µM | TGI [18]: < 0.01 µM | GI50 [19]: < 0.01 µM | TGI [19]: > 100 µM | GI50 [20]: 0.0119 µM | TGI [20]: > 100 µM | GI50 [21]: 0.0233 µM | TGI [21]: > 100 µM | GI50 [22]: < 0.01 µM | TGI [22]: 0.0195 µM | GI50 [23]: < 0.01 µM | TGI [23]: < 0.01 µM | GI50 [24]: < 0.01 µM | TGI [24]: < 0.01 µM | GI50 [25]: < 0.01 µM | TGI [25]: > 100 µM | GI50 [26]: < 0.01 µM | TGI [26]: > 100 µM | GI50 [27]: 0.0462 µM | TGI [27]: > 100 µM | GI50 [28]: < 0.01 µM | TGI [28]: > 100 µM | GI50 [30]: < 0.01 µM | TGI [30]: > 100 µM | GI50 [31]: < 0.01 µM | TGI [31]: > 100 µM | GI50 [32]: > 100 µM | TGI [32]: > 100 µM | GI50 [33]: 8.37 µM | TGI [33]: > 100 µM | GI50 [34]: < 0.01 µM | TGI [34]: < 0.01 µM | GI50 [35]: < 0.01 µM | TGI [35]: > 100 µM | GI50 [36]: < 0.01 µM | TGI [36]: > 100 µM | GI50 [37]: 6.07 µM | TGI [37]: > 100 µM | GI50 [59]: < 0.01 µM | TGI [59]: > 100 µM | GI50 [38]: < 0.01 µM | TGI [38]: > 100 µM | GI50 [39]: > 100 µM | TGI [39]: > 100 µM | GI50 [40]: < 0.01 µM | TGI [40]: > 100 µM | GI50 [41]: 0.0179 µM | TGI [41]: > 100 µM | GI50 [42]: < 0.01 µM | TGI [42]: > 100 µM | GI50 [43]: < 0.01 µM | TGI [43]: < 0.01 µM | GI50 [44]: < 0.01 µM | TGI [44]: < 0.01 µM | GI50 [45]: > 100 µM | TGI [45]: > 100 µM | GI50 [46]: > 100 µM | TGI [46]: > 100 µM | GI50 [47]: < 0.01 µM | TGI [47]: > 100 µM | GI50 [48]: < 0.01 µM | TGI [48]: < 0.01 µM | GI50 [49]: < 0.01 µM | TGI [49]: 0.0987 µM | GI50 [50]: < 0.01 µM | TGI [50]: > 100 µM | GI50 [52]: < 0.01 µM | TGI [52]: > 100 µM | GI50 [53]: < 0.01 µM | TGI [53]: < 0.01 µM | GI50 [54]: < 0.01 µM | TGI [54]: > 100 µM | GI50 [55]: < 0.01 µM | TGI [55]: > 100 µM | GI50 [56]: < 0.01 µM | TGI [56]: > 100 µM | GI50 [57]: < 0.01 µM | TGI [57]: > 100 µM | GI50 [58]: > 100 µM | TGI [58]: > 100 µM
